Laboratory results from patent publication US8258096B2, “Therapy procedure for drug delivery for trigeminal pain” (The Board of Trustees of the Leland Stanford Junior …, priority 2005, dated 2012).

Key:
Assay type in all cases: in vivo
[1] = system: trigeminal nucleus caudalis wide dynamic range (WDR) neurons; assay: Electrical stimulation-induced responses of trigeminal nucleus caudalis WDR neurons; settings: rat
Method: Male Sprague-Dawley rats (Charles River Laboratories) were anesthetized with isoflurane and used in the following experiments. In the anesthetized rats, single unit, extracellular recordings were performed in trigeminal nucleus caudalis while stimulating the ipsilateral facial skin with constant-current bipolar electrical stimulation. Epoxylate-insulated, tungsten microelectrodes (10 MOhm) were used under stereotaxic coordinate control.
Shown are responses (action potentials per 30 stimuli) to repeated stimulation of a rat's face before oxytocin administration (pre-oxytocin). After administration with oxytocin at approximately 0.1 IU, responses were recorded every five minutes for 65 minutes. A second administration of oxytocin at the same dosage was administered at approximately 70 minutes after the first dose. The approximate site of the administration of the electrical stimulation is indicated by the black spot on a map of the rat's face (FIG. 3B).

[2] = system: single pain sensing nerve cells in the trigeminal ganglion; assay: Nerve impulses of single trigeminal ganglion neurons in response to noxious laser pulses to the face; settings: rat, 10 nmoles applied to the nose, FIG. 2
Method: Sprague-Dawley rats (Charles River Laboratories) were anesthetized with isofluorane and a platinum electrode was inserted transcranially into the trigeminal ganglion. Nerve impulses (action potential) were recorded from single pain sensing nerve cells in the trigeminal ganglion in response to application of noxious laser pulses to the face of the rats. After recording responses to several identical laser pulses, 10 nmoles of oxytocin was applied to the nose of the rats. Thereafter, identical laser pulses were once again applied and recorded.

[3] = system: trigeminal nucleus caudalis wide dynamic range (WDR) neurons; assay: Long-pulse laser-induced responses of trigeminal nucleus caudalis WDR neurons; settings: rat, intranasal 0.025 ml of 0.05 mg/ml
Method: Male Sprague-Dawley rats (Charles River Laboratories) were anesthetized with isoflurane and used in the following experiments. In the anesthetized rats, single unit, extracellular recordings were performed in trigeminal nucleus caudalis while stimulating the ipsilateral facial skin with diode laser or constant-current bipolar electrical stimulation. Epoxylate-insulated, tungsten microelectrodes (10 MOhm) were used under stereotaxic coordinate control. […] Shown are responses (action potentials per second) to an 8 second-duration, 425 mA intensity laser stimulus to the site indicated by the black spot on a map of the rat's face (FIG. 4E).

[4] = system: second-order neurons in the trigeminal nucleus caudalis; assay: Electrical stimulus-induced windup; settings: rat, intranasal 0.025 ml of 0.05 mg/ml
Excerpt: Male Sprague-Dawley rats (Charles River Laboratories) were anesthetized with isoflurane and used in the following experiments. […] Needle electrodes were inserted subcutaneously at the site indicated in FIG. 5A by the black spot on the rat's head, and the skin was stimulated at 0.66 Hz, 2 msec duration, 3×C-fiber threshold for >25 times.

Sprague-Dawley rats = assay: Withdrawal latencies after noxious laser thermal stimulation of ears or hindpaws after intranasal administration; settings: rat, intranasal 10 nmoles/kg, tested from five minutes after final application
Excerpt: One way to test activity of an analgesic agent in a rat model is by treatment-induced changes in latencies (times) of withdrawal in response to noxious heating of the skin, typically using an ear, the face or a hindpaw. Thus, application of coherent or non-coherent (non-laser) radiant heat to the ear, the face or hindpaw will elicit rapid withdrawal movements. […] Transmucosal or transdermal administration of analgesic agents to the trigeminal nerve to reduce trigeminal nerve-associated pain can be tested for regional and/or systemic analgesia. The rostral external part of a rat's ear is innervated by a branch of the mandibular nerve, itself a branch of the trigeminal nerve, thus after treatment an increase in latency to withdrawal time would indicate regional analgesia. […]
Sprague-Dawley rats (Charles River Laboratories) were lightly anesthetized with urethane and placed with minimal restraint on a heating pad to maintain their body temperature at 37° C. […] Baseline withdrawal latencies were measured by delivering 4 separate stimuli with a resting period of approximately 15 minutes between each stimulus. […] As described above, testing sessions were videotaped and analyzed.

[5] = intranasal approximately 0.1 IU, first dose
[6] = second intranasal dose approximately 0.1 IU at approximately 70 minutes after the first

Compound: CC[C@H](C)[C@@H]1NC(=O)[C@H](Cc2ccc(O)cc2)NC(=O)[C@@H](N)CSSC[C@@H](C(=O)N2CCC[C@H]2C(=O)N[C@@H](CC(C)C)C(=O)NCC(N)=O)NC(=O)[C@H](CC(N)=O)NC(=O)[C@H](CCC(N)=O)NC1=O [Oxytocin, Cys-Tyr-Ile-Gln-Asn-Cys-Pro-Leu-Gly]
- responses (action potentials per 30 stimuli) after first administration ([1]; intranasal approximately 0.1 IU, electrical stimulation of face, FIG. 3A): significant reduction in responses
- time after first administration at which reduction in responses began [1, 5]: 10 min
- time post treatment until which reduction continued (responses then began to increase) [1, 5]: 50 min
- responses (action potentials per 30 stimuli) after second administration [1, 6]: significant reduction in responses
- time to reduction in responses after second administration [1, 6]: ≤ 10 min
- neuronal response (average nerve impulses per laser pulse), post- vs pre-treatment [2]: significantly (p<0.05) reduced

Compound: C[C@@H](O)[C@@H]1NC(=O)[C@H](CCCCN)NC(=O)[C@@H](Cc2c[nH]c3ccccc23)NC(=O)[C@H](Cc2ccccc2)NC(=O)[C@@H](NC(=O)[C@H](N)Cc2ccccc2)CSSC[C@@H](C(=O)N[C@H](CO)[C@@H](C)O)NC1=O [octreotide]
- response five minutes post-treatment ([3]; 8 second 425 mA laser stimulus, 5 minutes, FIG. 4B): no detectable reduction in response
- response at 10 minutes post-treatment ([3]; 8 second 425 mA laser stimulus, 10 minutes, baseline 42 spikes): 5 spikes
- reduction of response at 10 minutes post-treatment ([3]; 10 minutes vs pre-treatment baseline): 88%
- response 25 minutes post-treatment ([3]; 25 minutes, FIG. 4D): recovered
- reduction of total number of action potentials ([4]; 10 minutes after administration vs before): 19.4%
- total number of action potentials during the stimulation period ([4]; 10 minutes after administration, 25 stimulations at 0.66 Hz, 506 before treatment): 408

Compound: Tyr-Gly-Gly-Phe-Met [met-enkephalin]
- regional analgesic effect (ear withdrawal latency) (Sprague-Dawley rats; laser to ears, FIG. 1A): achieved a regional analgesic effect in the head region
- systemic analgesic effect (hindpaw withdrawal latency) (Sprague-Dawley rats; laser to hindpaws, FIG. 1B): without a systemic analgesic effect at the hindpaw
